Reference: US20020037829A1, “Use of DPPIV inhibitors as diuretic and anti-hypertensive agents” (priority 2000, published 2002)

Experiments:
Assay type in all cases: cell-based, opossum
NHE3 = test: 22Na uptake assay of EIPA-sensitive Na/H exchange (NHE3) activity in OKP cells; conditions: 1 mM Diprotin A, 20 min pre-incubation in NH3/NH4+ buffer pH 7.4
From the text: As an initial approach to examine the physiological role of the association of DPPIV with NHE3, Diprotin A, a specific competitive inhibitor that binds to the active site of DPPIV, affects NHE3 activity in OKP cells was studied. OKP is a line of opossum proximal tubule cells that has transport properties very similar to the native proximal tubule and is therefore commonly used as an in vitro model for the mammalian proximal tubule.
(§1) The concentration dependence for Diprotin A inhibition of DPPIV activity was first evaluated. […] Diprotin A inhibited EIPA-sensitive Na/H exchange activity by 36.7±5.3%. To test the specificity of this inhibition, activity of another brush border transport process, Cl^−-formate exchange, measured as Cl^− gradient-stimulated, DIDS-sensitive uptake of 14C-formate was assayed.

DPPIV = test: Colorimetric DPPIV enzyme assay with glycylproline p-nitroanilide tosylate as substrate in OKP cells; conditions: 1 mM Diprotin A
Description: as §1

Cl-formate exchange = test: Cl- gradient-stimulated, DIDS-sensitive 14C-formate uptake (Cl-formate exchange) in OKP cells; conditions: Diprotin A
Description: as §1

Ile-Pro-Ile [Diprotin A]
inhibition of EIPA-sensitive Na/H exchange activity (NHE3): 36.7±5.3%
inhibition of DPPIV activity in OKP cells (DPPIV): completely inhibited
effect on Cl-formate exchange activity (Cl-formate exchange): no significant effect
